# Data reported in US8716297B2, “Chemical entities to be used for Wee1 inhibition for the treatment of cancer” (AbbVie Inc., priority 2011, dated 2014).
# Molecular target: T1, GST-tagged-Wee1 kinase (Homo sapiens, UniProt P30291)
# T1 construct: purchased Carnabio 05-177
# Experiment: Wee1 time-resolved fluorescence equilibrium binding assay (displacement of Oregon Green-labeled ATP-competitive probe)
# Details: TR-FRET probe displacement; 2 nM GST-Wee1, 300 nM probe, 1 hour incubation; read-out: Wee-1 binding (Ki nM)
# Procedure: Wee1 kinase was assayed using a time-resolved fluorescence equilibrium binding assay monitoring displacement of a rapidly reversible Oregon Green-labeled ATP-competitive kinase probe (N-(2-(2-(2-(4-(4-(5-chloro-4-(2-(1-hydroxycyclobutyl)thiazol-5-yl)-1H-pyrrolo[2,3-b]pyridin-2-yl)phenyl)piperazin-1-yl)ethoxy)ethoxy)ethyl)-2′,7′-difluoro-3′,6′-dihydroxy-3-oxo-3H-spiro[isobenzofuran-1,9′-xanthene]-5-carboxamide) by competitive Wee1 inhibitors.
# T1 sequence (P30291 whole entry): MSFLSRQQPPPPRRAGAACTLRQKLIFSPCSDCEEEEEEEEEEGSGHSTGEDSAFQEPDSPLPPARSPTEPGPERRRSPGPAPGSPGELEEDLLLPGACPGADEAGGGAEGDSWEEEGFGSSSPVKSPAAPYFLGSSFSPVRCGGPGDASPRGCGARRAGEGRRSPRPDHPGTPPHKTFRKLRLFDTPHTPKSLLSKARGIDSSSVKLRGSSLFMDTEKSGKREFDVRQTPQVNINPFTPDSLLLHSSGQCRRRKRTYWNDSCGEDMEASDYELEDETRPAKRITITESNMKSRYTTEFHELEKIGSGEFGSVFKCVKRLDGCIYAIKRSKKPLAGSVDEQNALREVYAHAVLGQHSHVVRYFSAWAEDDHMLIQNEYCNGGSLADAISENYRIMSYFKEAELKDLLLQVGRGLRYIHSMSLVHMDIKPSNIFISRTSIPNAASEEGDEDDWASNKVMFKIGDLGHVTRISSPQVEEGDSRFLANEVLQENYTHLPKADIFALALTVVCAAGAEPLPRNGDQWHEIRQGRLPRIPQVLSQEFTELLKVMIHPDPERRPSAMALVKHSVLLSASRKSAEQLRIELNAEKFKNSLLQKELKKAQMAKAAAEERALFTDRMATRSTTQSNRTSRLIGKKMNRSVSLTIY
row,Structure (SMILES),Ki [nM]
1,"C=CCN1c2ncccc2-c2nc(Nc3ccc4c(c3)N(C(C)=O)CC4)ncc2S1(=O)=O [Example 35, 1-{6-[(6-allyl-5,5-dioxido-6H-pyrido[2,3-c]pyrimido[4,5-e][1,2]thiazin-2-yl)amino]-2,3-dihydro-1H-indol-1-yl}ethanone]",48
2,"C=CCN1c2ccccc2-c2nc(Nc3ccc(OCCN(CC)CC)cc3)ncc2S1(=O)=O [Example 3, 6-allyl-N-{4-[2-(diethylamino)ethoxy]phenyl}-6H-pyrimido[5,4-c][2,1]benzothiazin-2-amine 5,5-dioxide]",4.8
3,"CCCN1c2cc(-c3ccc(C(N)=O)cc3)ccc2-c2nc(Nc3ccc(N4CCN(C)CC4)cc3)ncc2S1(=O)=O [Example 71, 4-(2-{[4-(4-methylpiperazin-1-yl)phenyl]amino}-5,5-dioxido-6-propyl-6H-pyrimido[5,4-c][2,1]benzothiazin-8-yl)benzamide]",4
4,"C=CCN1c2ncccc2-c2nc(Nc3ccc(C(=O)N4CCN(C)CC4)cc3)ncc2S1(=O)=O [Example 43, {4-[(6-allyl-5,5-dioxido-6H-pyrido[2,3-c]pyrimido[4,5-e][1,2]thiazin-2-yl)amino]phenyl}(4-methylpiperazin-1-yl)methanone]",56
5,"C=CCN1c2ncccc2-c2nc(Nc3ccc(N4CCN(C)CC4)cc3C)ncc2S1(=O)=O [Example 44, 6-allyl-N-[2-methyl-4-(4-methylpiperazin-1-yl)phenyl]-6H-pyrido[2,3-c]pyrimido[4,5-e][1,2]thiazin-2-amine 5,5-dioxide]",487
6,"CCCN1c2cc(C(=O)NCc3cccnc3)ccc2-c2nc(Nc3ccc(N4CCN(C)CC4)cc3)ncc2S1(=O)=O [Example 87, 2-{[4-(4-methylpiperazin-1-yl)phenyl]amino}-6-propyl-N-(pyridin-3-ylmethyl)-6H-pyrimido[5,4-c][2,1]benzothiazine-8-carboxamide 5,5-dioxide]",5

# More lines, now with the values ahead:
row,Ki [nM],Structure (SMILES)
1,12,"CN1c2ccccc2-c2nc(Nc3ccc(N4CCOCC4)cc3)ncc2S1(=O)=O [Example 57, 6-methyl-N-[4-(morpholin-4-yl)phenyl]-6H-pyrimido[5,4-c][2,1]benzothiazin-2-amine 5,5-dioxide]"
2,1.7,"C=CCN1c2ccccc2-c2nc(Nc3ccc4c(c3)CN(C)CC4(C)C)ncc2S1(=O)=O [Example 22, 6-allyl-N-(2,4,4-trimethyl-1,2,3,4-tetrahydroisoquinolin-7-yl)-6H-pyrimido[5,4-c][2,1]benzothiazin-2-amine 5,5-dioxide]"
3,2.4,"CCCN1c2ccc(-c3cccnc3)cc2-c2nc(Nc3ccc(N4CCN(C)CC4)cc3)ncc2S1(=O)=O [Example 98, N-[4-(4-methylpiperazin-1-yl)phenyl]-6-propyl-9-(pyridin-3-yl)-6H-pyrimido[5,4-c][2,1]benzothiazin-2-amine 5,5-dioxide]"
4,2,"C=CCN1c2cc(Br)ccc2-c2nc(Nc3ccc(N4CCN(C)CC4)cc3)ncc2S1(=O)=O [Example 64, 6-allyl-8-bromo-N-[4-(4-methylpiperazin-1-yl)phenyl]-6H-pyrimido[5,4-c][2,1]benzothiazin-2-amine 5,5-dioxide]"
5,6,"CCCN1c2cc(Br)ccc2-c2nc(Nc3ccc(N4CCN(C)CC4)cc3)ncc2S1(=O)=O [Example 66, 8-bromo-N-[4-(4-methylpiperazin-1-yl)phenyl]-6-propyl-6H-pyrimido[5,4-c][2,1]benzothiazin-2-amine 5,5-dioxide]"
6,14,"CCCN1c2cc(-c3ccc(O)cc3)ccc2-c2nc(Nc3ccc(N4CCN(C)CC4)cc3)ncc2S1(=O)=O [Example 75, 4-(2-{[4-(4-methylpiperazin-1-yl)phenyl]amino}-5,5-dioxido-6-propyl-6H-pyrimido[5,4-c][2,1]benzothiazin-8-yl)phenol]"
7,1.1,"C=CCN1c2ccccc2-c2nc(Nc3ccc4c(c3)CN(C)CC43CC3)ncc2S1(=O)=O [Example 28, 6-allyl-N-(2′-methyl-2′,3′-dihydro-1′H-spiro[cyclopropane-1,4′-isoquinolin]-7′-yl)-6H-pyrimido[5,4-c][2,1]benzothiazin-2-amine 5,5-dioxide]"
